The values that follow come from patent publication US20220175761A1, “BI-LIGAND DRUG CONJUGATE AND USE THEREOF” (COHERENT BIOPHARMA (SUZHOU), LIMITED, priority 2019, published 2022).

For test [1], the system named is LNCaP (human prostate cancer cells). As to the kind of experiment: Inhibition of cell line proliferation, CCK8. Format: cell-based. The conditions noted are these: LNCaP. The text has this:
Since different cells have different sensitivity to a cell proliferation inhibitory toxicity of the payload in a ligand conjugate, the quantitative analysis may be interfered occasionally. A series of cell lines with known expression levels of receptors of different ligands were selected and tested for the response to inhibitory effects of the cell proliferation of a ligand conjugate and a single payload. The IC50 ratio of a single payload to that of a ligand conjugate in same cell line were taken to remove such interference.
Experimental operations: LNCaP and 22RV1 cells were prepared in advance, counted, and plated in 96-well cell culture plates at a cell density of 4×10^4 cells/ml and 2.0×10^4 cells/ml, respectively (100 μl/well); negative control and blank control wells were set on each plate. After adherent cell culture overnight, the diluted samples to be tested were added at 50 μl/well. The plates were placed in an incubator at 37° C., 5% CO2 and cultured for 68-72 hours. To each well, 15 μl (10% of the liquid volume in a well) of a color developing solution from CCK8 was added; and the plates were incubated at 37° C. for 45-70 minutes and each plate was read at 450 nm on a microplate reader. The data was edited using SoftMax Pro and a 4-P fitting curve was plotted. […]

The test system of test [2] is CFPAC-1 (human pancreatic cancer cells). The test is described as follows: Inhibition of cell line proliferation, CCK8. Format: cell-based. The procedure:
(§1) Experimental operations: PANC-1 and CFPAC-1 cells were prepared in advance, counted, and plated in 96-well cell culture plates at a cell density of 4×10^4 cells/ml (100 μl/well); negative control and blank control wells were set on each plate. After adherent cell culture overnight, the diluted samples to be tested were added at 50 μl/well. The plates were placed in an incubator at 37° C., 5% CO2 and cultured for 68-72 hours. To each well, 15 μl (10% of the liquid volume in a well) of a color developing solution from CCK8 was added; and the plates were incubated at 37° C. for 45-70 minutes and each plate was read at 450 nm on a microplate reader. The data was edited using SoftMax Pro and a 4-P fitting curve was plotted.
(§2) Experimental operations: LNCaP, SK-BR-3, NCI-H226, CFPAC-1 and PANC-1 cells were prepared in advance and counted; with a culture medium (IMDM+10% FBS+1× L-Glutamine+1×P/S), the cells LNCaP, SK-BR-3 and CFPAC-1 were diluted to 4×10^4 cells/ml, NCI-H226 was diluted to 2.0×10^4 cells/ml and PANC-1 was diluted to 3.0×10^4 cells/ml; the diluted cell solution was plated in 96-well plates at 100 μl/well; and negative control and blank control wells were set on each plate. After adherent cell culture overnight, the diluted samples to be tested were added at 50 μl/well. The plates were placed in an incubator at 37° C., 5% CO2 and cultured for 68-72 hours. To each well, 15 μl (10% of the liquid volume in a well) of a color developing solution from CCK8 was added; and the plates were incubated at 37° C. for 45-70 minutes and each plate was read at 450 nm on a microplate reader. The data was edited using SoftMax Pro and a 4-P fitting curve was plotted.
(§3) Experimental Operations: LNCaP, SK-BR-3, MDA-MB-468 and CFPAC-1 cells were prepared in advance and counted; with a culture medium (IMDM+10% FBS+1× L-Glutamine+1×P/S), the cells LNCaP, SK-BR-3, MDA-MB-468 and CFPAC-1 were diluted to 4×10^4 cells/ml; the diluted cell solution was plated in 96-well plates at 100 µl/well; and negative control and blank control wells were set on each plate. After adherent cell culture overnight, the diluted samples to be tested were added at 50 μl/well. The plates were placed in an incubator at 37° C., 5% CO2 and cultured for 68-72 hours. To each well, 15 μl (10% of the liquid volume in a well) of a color developing solution from CCK8 was added; and the plates were incubated at 37° C. for 45-70 minutes and each plate was read at 450 nm on a microplate reader. The data was edited using SoftMax Pro and a 4-P fitting curve was plotted.
as §3, with “Operations: LNCaP, MDA-MB-468, CFPAC-1 and PANC-1” for “Operations: LNCaP, SK-BR-3, MDA-MB-468 and CFPAC-1”, “CFPAC-1 and PANC-1 cells were” for “MDA-MB-468 and CFPAC-1 cells were”, “cells LNCaP, MDA-MB-468 and” for “cells LNCaP, SK-BR-3, MDA-MB-468 and”, “to 4×10^4 cells/ml, and PANC-1 was diluted to 3.0×10^4 cells/ml; the” for “to 4×10^4 cells/ml; the”, “at 100 μl/well; and negative” for “at 100 µl/well; and negative”
Experimental operations: NCI-H226, CFPAC-1 and MDA-MB-468 cells were prepared in advance and counted; MDA-MB-468 and CFPAC-1 cells were plated at a density of 2×10^4 cells/ml (100 μl/well) and NCI-H226 cells were plated at a density of 1×10^4 cells/ml (100 μl/well) in 96-well plates; and negative control and blank control wells were set on each plate. After adherent cell culture overnight, the diluted samples to be tested were added at 50 μl/well. The plates were placed in an incubator at 37° C., 5% CO2 and cultured for 68-72 hours. […]

For test [3], the system named is PANC-1 (human pancreatic cancer cells). The test is described as follows: Inhibition of cell line proliferation, CCK8. The class given is cell-based. The protocol: as §1, §2
as §3, with “Operations: LNCaP, MDA-MB-468, CFPAC-1 and PANC-1” for “Operations: LNCaP, SK-BR-3, MDA-MB-468 and CFPAC-1”, “CFPAC-1 and PANC-1 cells were” for “MDA-MB-468 and CFPAC-1 cells were”, “cells LNCaP, MDA-MB-468 and” for “cells LNCaP, SK-BR-3, MDA-MB-468 and”, “to 4×10^4 cells/ml, and PANC-1 was diluted to 3.0×10^4 cells/ml; the” for “to 4×10^4 cells/ml; the”, “at 100 μl/well; and negative” for “at 100 µl/well; and negative”

Test [4] has as its system MDA-MB-468 (human breast cancer cells). The test is described as follows: Inhibition of cell line proliferation, CCK8. Format: cell-based. The procedure: as §3
as §3, with “Operations: LNCaP, MDA-MB-468, CFPAC-1 and PANC-1” for “Operations: LNCaP, SK-BR-3, MDA-MB-468 and CFPAC-1”, “CFPAC-1 and PANC-1 cells were” for “MDA-MB-468 and CFPAC-1 cells were”, “cells LNCaP, MDA-MB-468 and” for “cells LNCaP, SK-BR-3, MDA-MB-468 and”, “to 4×10^4 cells/ml, and PANC-1 was diluted to 3.0×10^4 cells/ml; the” for “to 4×10^4 cells/ml; the”, “at 100 μl/well; and negative” for “at 100 µl/well; and negative”
Experimental operations: NCI-H226, CFPAC-1 and MDA-MB-468 cells were prepared in advance and counted; MDA-MB-468 and CFPAC-1 cells were plated at a density of 2×10^4 cells/ml (100 μl/well) and NCI-H226 cells were plated at a density of 1×10^4 cells/ml (100 μl/well) in 96-well plates; and negative control and blank control wells were set on each plate. After adherent cell culture overnight, the diluted samples to be tested were added at 50 μl/well. The plates were placed in an incubator at 37° C., 5% CO2 and cultured for 68-72 hours. To each well, 15 μl (10% of the liquid volume in a well) of a color developing solution from CCK8 was added; and the plates were incubated at 37° C. for 45-70 minutes and each plate was read at 450 nm on a microplate reader. The data was edited using SoftMax Pro and a 4-P fitting curve was plotted.

The subject of test [5] is SCLC-21H (small cell lung cancer cells). As to the kind of experiment: Tumor growth inhibition in subcutaneous xenograft model (CDX). Format: in vivo, BALB/c-nude mice. The conditions noted are these: SCLC-21H CDX. The protocol: Main CDX models: HPAF-II (human pancreatic cancer cells), NCI-H226 (human lung cancer cells) and SCLC-21H (small cell lung cancer cells)
The cells or tumor tissue mass were prepared and subcutaneously inoculated into the anterior right flank of BALB/c-nude mice. When the tumor volume expanded to 80-160 mm^3, a randomized grouping was performed, and a model control group and administration groups were set. The mice were administrated from the first day of grouping, wherein the administration dose was adjusted according to the latest weight measurement. The mice were administrated via tail vein injection at an administration volume of 10 μl/g. After grouping and administration, the effects of tumor growth and treatment on normal behaviors of animals, specifically including the activity of experimental animals, food intake and drinking status, weight gain or loss status, and other abnormal conditions in eyes, hair, etc., were monitored. After grouping and administration, the weight of mice was measured twice a week to calculate the rate of weight change; at the same time, the long diameter and short diameter of the tumor were measured with a vernier caliper, and the tumor volume, relative tumor proliferation rate, tumor volume inhibition rate and other indicators were calculated. The formula of tumor volume is TV=0.5 a×b^2, wherein a is […] the long diameter of a tumor and b is the short diameter of a tumor.

Each structure is given as a SMILES string. Numbered stars: 1 amine (or outer) side, 2 acyl side, 3 side chain; on linkers, the order of the positions; unused ones are H or OH. Bridge positions count the residues as written; N and C are the ends. Square brackets hold non-standard residues; d marks the D form. Peptide text beside a SMILES is read from it. I, II: the chains in the order shown. * marks the point of attachment. ξ: configuration not given here. Hexanoyl(6-succinimido-3yl) = O=C1CC([*:1])C(=O)N1CCCCCC(=O)[*:2]; EuK = O=C(O)CC[C@H](NC(=O)N[C@@H](CCCCN*)C(=O)O)C(=O)O; Dolaproine = CO[C@@H]([C@@H]1CCCN1)[C@@H](C)C(=O)O; Dil = CC[C@H](C)[C@H](NC)[C@@H](CC(=O)O)OC; PABC = O=C(OCc1ccc(N[*:1])cc1)[*:2]; X1 = C[C@@H](N*)[C@@H](O)c1ccccc1; X2 = O=C(Cc1ccc(CN[*:1])cc1)[*:2]; PEG4 = NCCOCCOCCOCCOCCC(=O)O; NMeV = CN[C@H](C(=O)O)C(C)C; ξCit = NC(=O)NCCCC(N)C(=O)O; CO = O=C([*:1])[*:2]; Butyryl = CCCC(=O)*; Ahx = NCCCCCC(=O)O

On to `CCCC(=O)N[C@@H](Cc1ccccc1)C(=O)N[C@H]1CSSC[C@@H](C(=O)N[C@H](C(=O)N[C@@H](CCCCNC(=O)[C@H](CCC(=O)O)NC(=O)CCOCCOCCOCCOCCNC(=O)[C@H](CCC(=O)O)NC(=O)[C@H](CSC2CC(=O)N(CCCCCC(=O)N[C@H](C(=O)NC(CCCNC(N)=O)C(=O)Nc3ccc(COC(=O)N(C)[C@H](C(=O)N[C@H](C(=O)N(C)[C@@H]([C@@H](C)CC)[C@@H](CC(=O)N4CCC[C@H]4[C@H](OC)[C@@H](C)C(=O)N[C@H](C)[C@@H](O)c4ccccc4)OC)C(C)C)C(C)C)cc3)C(C)C)C2=O)NC(=O)CCCCCNC(=O)[C@H](CCCCN)NC(=O)[C@H](CC(=O)O)NC(=O)[C@H](CC(=O)O)NC(=O)Cc2ccc(CNC(=O)NCCCC[C@H](NC(=O)N[C@@H](CCC(=O)O)C(=O)O)C(=O)O)cc2)C(N)=O)[C@@H](C)O)NC(=O)[C@H]([C@@H](C)O)NC(=O)[C@H](CCCCN)NC(=O)[C@H](Cc2c[nH]c3ccccc23)NC(=O)[C@H](Cc2ccc(O)cc2)NC1=O` (stereo partly drawn) [CB-1820] (I: Butyryl-FCYWKTCTK-NH2 / II: {EuK-CO}-[X2]DDK[Ahx]CE[PEG4]E / III: V[ξCit][PABC][NMeV]V[Dil][Dolaproine]-X1; disulfide I:2-I:7; amide I:9-II:C; linker II:6-III:N via Hexanoyl(6-succinimido-3yl)), for which, in test [1], the “IC50 ratio (MMAE/conjugate)” value was found to be 0.1429. Further, the IC50 in test [1] (68-72 hours, CCK8) is 21 nM; in test [2] (CFPAC-1, 68-72 hours, CCK8), 356 nM; in test [3] (PANC-1, 68-72 hours, CCK8), 55 nM; in test [4] (MDA-MB-468, 68-72 hours, CCK8), 62 nM. In addition, the “IC50 (MMAE)/IC50 (conjugate)” value in test [2] (CFPAC-1) is 0.0421; in test [3] (PANC-1), 0.0364; in test [4] (MDA-MB-468) it was 0.0323. In test [5], the “anti-tumor growth effect (in words)” value is recorded as “obvious anti-tumor growth effect”.
